pIC50: −log10 of the molar value.
Columns and labels:
MAPK14 (human) [1] = biological target: MAPK14 (human) (UniProt Q16539); assay: Inhibition of IL-1beta Production in LPS Stimulated PBMC
MAPK14 (human) [2] = biological target: MAPK14 (human) (UniProt Q16539); assay: Inhibition of IL-6 Release in LPS Stimulated Whole Blood Cells
MAPK14 (human) [3] = biological target: MAPK14 (human) (UniProt Q16539); assay: Inhibition of MAPK14 Kinase Activity
MAPK14 (human) [4] = biological target: MAPK14 (human) (UniProt Q16539); assay: Inhibition of TNF-alpha Production in LPS Stimulated PBMC
MAPK14 (human) [5] = biological target: MAPK14 (human) (UniProt Q16539); assay: Inhibition of TNF-alpha Release in LPS Stimulated Whole Blood Cells
MAPK14 (human) [6] = biological target: MAPK14 (human) (UniProt Q16539); assay: Inhibition of IL-1 beta Release in LPS Stimulated Whole Blood Cells

Sequence of MAPK14 (human) (Q16539 whole entry, looked up): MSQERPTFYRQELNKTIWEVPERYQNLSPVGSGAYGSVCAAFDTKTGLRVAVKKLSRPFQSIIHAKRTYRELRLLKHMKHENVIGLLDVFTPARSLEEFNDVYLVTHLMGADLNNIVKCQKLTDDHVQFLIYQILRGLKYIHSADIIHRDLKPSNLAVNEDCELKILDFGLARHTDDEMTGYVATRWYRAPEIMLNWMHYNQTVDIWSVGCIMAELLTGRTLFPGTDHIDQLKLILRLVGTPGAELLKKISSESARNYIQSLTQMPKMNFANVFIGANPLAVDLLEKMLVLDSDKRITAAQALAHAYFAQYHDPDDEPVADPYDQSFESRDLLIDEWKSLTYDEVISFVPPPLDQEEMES

Row | Compound | pIC50 (MAPK14 (human) [1]) | pIC50 (MAPK14 (human) [2]) | pIC50 (MAPK14 (human) [3]) | pIC50 (MAPK14 (human) [4]) | pIC50 (MAPK14 (human) [5]) | pIC50 (MAPK14 (human) [6])
1 | CN(C)C=NC(=O)OCc1ccc(N(C(N)=O)c2c(F)cccc2F)nc1-c1ccc(F)cc1F | 7.30 | 4.96 | 6.00 | 7.30 | 4.70 | 4.91
2 | CC(C)[C@H](N)C(=O)OCCNC(=O)OCc1ccc(N(C(N)=O)c2c(F)cccc2F)nc1-c1ccc(F)cc1F | 7.92 | 7.08 | 7.51 | 7.66 | 7.26 | 6.85
3 | CN(C)C=NC(=O)OCc1ccc(N(C(=O)N=CN(C)C)c2c(F)cccc2F)nc1-c1ccc(F)cc1F |  | 6.10 | 5.30 |  | 5.37 | 5.66
